The record followed here is patent publication US20230050965A1, “SSTR5 ANTAGONISTS” (Kallyope, Inc., priority 2019, published 2023).

pIC50: −log10 of the molar value.

T1 sequence (P35346 whole entry): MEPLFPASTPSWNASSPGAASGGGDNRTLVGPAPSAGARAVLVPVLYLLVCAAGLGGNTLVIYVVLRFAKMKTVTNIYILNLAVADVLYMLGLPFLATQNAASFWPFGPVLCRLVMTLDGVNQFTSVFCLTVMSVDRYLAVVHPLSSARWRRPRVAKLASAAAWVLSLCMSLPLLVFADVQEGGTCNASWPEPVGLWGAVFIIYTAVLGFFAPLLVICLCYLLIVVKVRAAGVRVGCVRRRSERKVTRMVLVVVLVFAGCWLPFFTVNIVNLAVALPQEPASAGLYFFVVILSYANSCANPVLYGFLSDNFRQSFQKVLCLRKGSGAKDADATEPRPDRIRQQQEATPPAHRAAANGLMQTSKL

This test has as its target T1, human SSTR5 (Homo sapiens, UniProt P35346).
T1 construct: expressed in transfected cells
Briefly: Inositol phosphate (IP1) accumulation assay, antagonist mode. The format is cell-based. The settings on record: CHO-K1 cells stably co-expressing human SSTR5 with Gqi5; pre-incubation with antagonist, then SST28 agonist; IP1 HTRF readout. From the text:
Inositol Phosphate Accumulation Assay
CHO-K1 cells stably co-expressing human SSTR5 with Gqi5 were developed using Jump-In technology from Thermo-Fisher. Gqi5 is the mouse G alpha q protein, that was modified to interact with Gi-coupled GPCRs as described previously (Coward, P.; Chan, S. D.; Wada, H. G.; Humphries, G. M.; Conklin, B. R. Chimeric G proteins Allow a High-Throughput Signaling Assay of Gi-Coupled Receptors. Anal Biochem. 1999, 270(2), 242-248).
Co-expression of Gqi5 with SSTR5 allowed monitoring of SSTR5 activity by following IP1 accumulation. The assay was performed in a 384-well plate format using the IP1 assay kit from Cis-Bio in an antagonist mode, i.e., pre-incubation with antagonist following by receptor activation by agonist at a concentration generating 90% of full activation. Frozen cells expressing human SSTR5 were thawed, washed, and then plated in DMEM supplemented with 10% FBS and non-essential amino acids. 40 μL of 2.5×10^5 cells/mL were plated on a Poly D-Lysine coated 384-well white plate. The cells were then incubated for 16 hr. at 37° C./5% CO2. After 16 hour the medium was removed, and 10 μL of stimulation buffer was added to the cells. Test compounds were dissolved in DMSO at concentrations 2000-fold that of the final assay concentrations. 7.5 nL compound solutions were transferred to the cell plates using a Labcyte Echo® acoustic liquid handler. The plates were then incubated for 15 minutes at 37° C./5% CO2. After the first incubation, 5 μL of 30 nM SST28 were added to the cells, and the cells were incubated for 90 minutes at 37° C./5% CO2. 5 μL of detection buffer (prepared as described in the IP-1 kit) was added to each well, and the plates were incubated at RT for 1 hour.
TR-FRET was measured using a ClarioSTAR plate reader, calculating the ratio between emissions at 665 nm and 620 nm (HTRF ratio). The HTRF ratio for positive (Max) and negative (Min) controls were used to normalize HTRF data and generate values for % inhibition. IC50 and maximal inhibition values were determined using a standard 4-parameter fit.
What is called pIC50 is the IC50 on a negative log10 scale, so that one unit is a factor of ten. With `CCOc1cc(-c2ccc(F)cc2)c(C2CC2)cc1CN1CCC2(CC1)CN(c1ccc(B(O)O)cc1)C(=O)O2` [Compound 13, (4-(8-((2-cyclopropyl-5-ethoxy-4′-fluoro-[1,1′-biphenyl]-4-yl)methyl)-2-oxo-1-oxa-3,8-diazaspiro[4.5]decan-3-yl)phenyl)boronic acid], the pIC50 was ≥ 7.00.
As to `CCOc1cc(-c2ccc(F)cc2)c(C2CC2)cc1CN1CCC2(CC1)CN(c1ccc(CCNC(=N)NC(=N)N)cc1)C(=O)O2` [Compound 14, 1-carbamimidoyl-3-[2-[4-[8-[[5-cyclopropyl-2-ethoxy-4-(4-fluorophenyl)phenyl]methyl]-2-oxo-1-oxa-3,8-diazaspiro[4.5]decan-3-yl]phenyl]ethyl]guanidine], the pIC50 is ≥ 7.00.
`CCOc1cc(C(=O)OC)c(C2CC2)cc1CN1CCC2(CC1)CC(=O)N(c1ccc(CCCCNC(=O)NC(CO)(CO)CO)cc1)C2` [Compound 16, methyl 2-cyclopropyl-4-((2-(4-(4-(3-(1,3-dihydroxy-2-(hydroxymethyl)propan-2-yl)ureido)butyl)phenyl)-3-oxo-2,8-diazaspiro[4.5]decan-8-yl)methyl)-5-ethoxybenzoate]: the pIC50 was < 5.30.
As for `CCOc1cc(C(=O)OC)c(C2CC2)cc1CN1CCC2(CC1)CC(=O)N(c1ccc(CCCCNC=O)cc1)C2` [Compound 17, methyl 2-cyclopropyl-5-ethoxy-4-((2-(4-(4-formamidobutyl)phenyl)-3-oxo-2,8-diazaspiro[4.5]decan-8-yl)methyl)benzoate], the pIC50 is 6.00 to 7.00.
For the compound `CCOc1cc(C(=O)OC)c(C2CC2)cc1CN1CCC2(CC1)CC(=O)N(c1ccc(CCCCNS(C)(=O)=O)cc1)C2` [Compound 18, methyl 2-cyclopropyl-5-ethoxy-4-((2-(4-(4-(methylsulfonamido)butyl)phenyl)-3-oxo-2,8-diazaspiro[4.5]decan-8-yl)methyl)benzoate], the pIC50 is 5.30 to 6.00.
Next, `CCOc1cc(C(=O)OC)c(C2CC2)cc1CN1CCC2(CC1)CC(=O)N(c1ccc(CCCCNC(=O)CO)cc1)C2` [Compound 19, methyl 2-cyclopropyl-5-ethoxy-4-((2-(4-(4-(2-hydroxyacetamido)butyl)phenyl)-3-oxo-2,8-diazaspiro[4.5]decan-8-yl)methyl)benzoate]: 5.30 to 6.00.
The compound `CCOc1cc(C(=O)OC)c(C2CC2)cc1CN1CCC2(CC1)CC(=O)N(c1ccc(CCCCNC(N)=O)cc1)C2` [Compound 20, methyl 2-cyclopropyl-5-ethoxy-4-((3-oxo-2-(4-(4-ureidobutyl)phenyl)-2,8-diazaspiro[4.5]decan-8-yl)methyl)benzoate] gave a pIC50 of 5.30 to 6.00.
Then `CCOc1cc(C(=O)OC)c(C2CC2)cc1CN1CCC2(CC1)CN(c1ccc(P(=O)(O)O)cc1)C(=O)N2` [Compound 21, (4-(8-(5-cyclopropyl-2-ethoxy-4-(methoxycarbonyl)benzyl)-2-oxo-1,3,8-triazaspiro[4.5]decan-3-yl)phenyl)phosphonic acid], with ≥ 7.00; and `CCOc1cc(-c2ccc(F)cc2)c(C2CC2)cc1CN1CCC2(CC1)CN(c1ccc(P(=O)(O)O)cc1)C(=O)N2` [Compound 22, (4-(8-((2-cyclopropyl-5-ethoxy-4′-fluoro-[1,1′-biphenyl]-4-yl)methyl)-2-oxo-1,3,8-triazaspiro[4.5]decan-3-yl)phenyl)phosphonic acid], with ≥ 7.00; and `CCOc1cc(C(=O)OC)c(C2CC2)cc1CN1CCC2(CC1)CC(=O)N(c1ccc(P(=O)(O)O)cc1)C2` [Compound 23, (4-(8-(5-cyclopropyl-2-ethoxy-4-(methoxycarbonyl)benzyl)-3-oxo-2,8-diazaspiro[4.5]decan-2-yl)phenyl)phosphonic acid], with < 5.30.
Next, `CCOc1cc(C(=O)OC(C)C)c(C2CC2)cc1CN1CCC2(CC1)CC(=O)N(c1ccc(P(=O)(O)O)cc1)C2` [Compound 24, (4-(8-(5-cyclopropyl-2-ethoxy-4-(isopropoxycarbonyl)benzyl)-3-oxo-2,8-diazaspiro[4.5]decan-2-yl)phenyl)phosphonic acid]: 6.00 to 7.00.
`CCOc1cc(-c2ccc(F)cc2)c(C2CC2)cc1CN1CCC2(CC1)CN(c1ccc(P(=O)(O)OCC)cc1)C(=O)N2` [Compound 25, ethyl hydrogen (4-(8-((2-cyclopropyl-5-ethoxy-4′-fluoro-[1,1′-biphenyl]-4-yl)methyl)-2-oxo-1,3,8-triazaspiro[4.5]decan-3-yl)phenyl)phosphonate]: the pIC50 was ≥ 7.00.
Take `CCOc1cc(-c2nc(C)no2)c(C2CC2)cc1CN1CCC2(CC1)CN(c1ccc(P(=O)(O)O)cc1)C(=O)O2` [Compound 26, (4-(8-(5-cyclopropyl-2-ethoxy-4-(3-methyl-1,2,4-oxadiazol-5-yl)benzyl)-2-oxo-1-oxa-3,8-diazaspiro[4.5]decan-3-yl)phenyl)phosphonic acid]: the pIC50 is ≥ 7.00.
Then `CCOc1cc(-c2nc(C)no2)c(C2CC2)cc1CN1CCC2(CC1)CN(c1ccc(P(=O)(O)O)cc1)C(=O)N2` [Compound 27, (4-(8-(5-cyclopropyl-2-ethoxy-4-(3-methyl-1,2,4-oxadiazol-5-yl)benzyl)-2-oxo-1,3,8-triazaspiro[4.5]decan-3-yl)phenyl)phosphonic acid], with ≥ 7.00; and `CCOc1cc(-c2ccc(F)cc2)c(C2CC2)cc1CN1CCC2(CC1)CN(c1ccc(P(C)(=O)O)cc1)C(=O)N2` [Compound 28, (4-(8-((2-cyclopropyl-5-ethoxy-4′-fluoro-[1,1′-biphenyl]-4-yl)methyl)-2-oxo-1,3,8-triazaspiro[4.5]decan-3-yl)phenyl)(methyl)phosphinic acid], with ≥ 7.00; and `CCOc1cc(-c2ccc(F)cc2)c(C2CC2)cc1CN1CCC2(CC1)CC(=O)N(c1ccc(P(=O)(O)O)cc1)C2` [Compound 29, (4-(8-((2-cyclopropyl-5-ethoxy-4′-fluoro-[1,1′-biphenyl]-4-yl)methyl)-3-oxo-2,8-diazaspiro[4.5]decan-2-yl)phenyl)phosphonic acid], with ≥ 7.00.
Next, `CCOc1cc(-c2ccc(F)cc2)c(C2CC2)cc1CN1CCC2(CC1)CN(c1ccc(CP(=O)(O)O)cc1)C(=O)O2` [Compound 30, (4-(8-((2-cyclopropyl-5-ethoxy-4'-fluoro-[1,1'-biphenyl]-4-yl)methyl)-2-oxo-1-oxa-3,8-diazaspiro[4.5]decan-3-yl)benzyl)phosphonic acid]: ≥ 7.00.
Then `CCOc1cc(S(C)(=O)=O)c(C2CC2)cc1CN1CCC2(CC1)CN(c1cccc(CCCCNC(=O)NC(CO)(CO)CO)c1)C(=O)N2` [Compound 31, 1-(4-(3-(8-(5-cyclopropyl-2-ethoxy-4-(methylsulfonyl)benzyl)-2-oxo-1,3,8-triazaspiro[4.5]decan-3-yl)phenyl)butyl)-3-(1,3-dihydroxy-2-(hydroxymethyl)propan-2-yl)urea], with 6.00 to 7.00; and `CCOc1cc(-c2ccc(F)cc2)c(C2CC2)cc1CN1CCC2(CC1)CN(c1ccc(CNC[C@H](O)[C@@H](O)[C@H](O)[C@H](O)CO)cc1)C(=O)O2` [Compound 32, 8-((2-cyclopropyl-5-ethoxy-4'-fluoro-[1,1'-biphenyl]-4-yl)methyl)-3-(4-((((2S,3R,4R,5R)-2,3,4,5,6-pentahydroxyhexyl)amino)methyl)phenyl)-1-oxa-3,8-diazaspiro [4.5]decan-2-one], with ≥ 7.00.
Turning to `CCOc1cc(-c2ccc(F)cn2)c(C2CCC2)cc1CN1CCC2(CC1)CN(c1ccc(P(=O)(O)O)cc1)C(=O)O2` [Compound 35, (4-(8-(5-cyclobulyl-2-ethoxy-4-(5-fluoropyridin-2-yl)benzyl)-2-oxo-1-oxa-3,8-diazaspiro[4.5]decan-3-yl)phenyl)phosphonic acid], the pIC50 is ≥ 7.00.
With `CCOc1cc(-c2ccc(F)cc2)c(C2CCC2)cc1CN1CCC2(CC1)CN(c1ccc(P(=O)(O)O)cc1)C(=O)O2` [Compound 36, (4-(8-((2-cyclobutyl-5-ethoxy-4'-fluoro-[1,1'-biphenyl]-4-yl)methyl)-2-oxo-1-oxa-3,8-diazaspiro[4.5]decan-3-yl)phenyl)phosphonic acid], the pIC50 was ≥ 7.00.
Then `CCOc1cc(-c2ccc(F)cc2)c(C(C)C)cc1CN1CCC2(CC1)CN(c1ccc(P(=O)(O)O)cc1)C(=O)O2` [Compound 37, (4-(8-((5-ethoxy-4'-fluoro-2-isopropyl-[1,1'-biphenyl]-4-yl)methyl)-2-oxo-1-oxa-3,8-diazaspiro[4.5]decan-3-yl)phenyl)phosphonic acid], with ≥ 7.00; and `CCOc1cc(-c2ccc(F)cc2)c(C2CC2)cc1CN1CCN(S(=O)(=O)Cc2ccc(P(=O)(O)O)cc2)CC1` [Compound 38, (4-(((4-((2-cyclopropyl-5-ethoxy-4′-fluoro-[1,1′-biphenyl]-4-yl)methyl)piperazin-1-yl)sulfonyl)methyl)phenyl)phosphonic acid], with ≥ 7.00.
